We go through two compounds from BindingDB's records for PubMed 34699207 (National Institute On Drug Abuse?Intramural Research Program, 2021).

The target of one assay is D(3) dopamine receptor (Homo sapiens, UniProt P35462). Nature of the assay: Displacement of [3H]-(R)-(+)7-OH-DPAT from human dopamine D3 receptor expressed in HEK293 cell membranes incubated for 90 mins by microbeta scintillation counting analysis.
In the next assay the target is D(2) dopamine receptor (Homo sapiens, UniProt P14416). Put plainly: Displacement of [3H]-(R)-(+)7-OH-DPAT from human dopamine D2 receptor expressed in HEK293 cell membranes incubated for 90 mins by microbeta scintillation counting analysis.
D(2) dopamine receptor, sequence (P14416 whole entry): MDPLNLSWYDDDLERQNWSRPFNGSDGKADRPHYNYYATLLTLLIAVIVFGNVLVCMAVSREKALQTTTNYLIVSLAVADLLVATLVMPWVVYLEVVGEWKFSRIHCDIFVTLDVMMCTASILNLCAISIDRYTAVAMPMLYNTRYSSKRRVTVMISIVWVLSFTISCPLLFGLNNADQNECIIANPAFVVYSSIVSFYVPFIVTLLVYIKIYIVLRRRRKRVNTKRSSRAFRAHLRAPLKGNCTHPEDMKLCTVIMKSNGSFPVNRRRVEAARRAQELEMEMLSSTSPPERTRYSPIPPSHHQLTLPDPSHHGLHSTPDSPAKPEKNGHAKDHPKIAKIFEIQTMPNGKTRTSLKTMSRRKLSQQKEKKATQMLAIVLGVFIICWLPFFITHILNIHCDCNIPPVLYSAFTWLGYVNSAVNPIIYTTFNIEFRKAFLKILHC

D(3) dopamine receptor, sequence (P35462 whole entry): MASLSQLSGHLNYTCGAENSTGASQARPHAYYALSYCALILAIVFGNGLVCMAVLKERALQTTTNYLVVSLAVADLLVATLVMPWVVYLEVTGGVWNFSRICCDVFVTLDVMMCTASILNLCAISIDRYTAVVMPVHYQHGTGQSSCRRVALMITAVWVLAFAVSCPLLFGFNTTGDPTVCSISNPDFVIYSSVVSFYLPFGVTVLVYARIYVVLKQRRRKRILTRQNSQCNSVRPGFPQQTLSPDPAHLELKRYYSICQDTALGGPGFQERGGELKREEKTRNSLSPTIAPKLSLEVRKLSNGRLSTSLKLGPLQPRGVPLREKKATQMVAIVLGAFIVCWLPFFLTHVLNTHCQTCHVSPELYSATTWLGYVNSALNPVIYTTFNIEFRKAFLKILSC

On to `CN(CC[C@@H]1CC[C@H](CNC(=O)c2cc3ccccc3[nH]2)C1)[C@@H]1Cc2cccc3[nH]c(=O)n(c23)C1`, for which the Ki on D(3) dopamine receptor stood at 0.02 µM; at D(2) dopamine receptor, 0.002 µM.

For the compound `CN(CC[C@@H]1CC[C@@H](CNC(=O)c2cc3ccccc3[nH]2)C1)[C@@H]1Cc2cccc3[nH]c(=O)n(c23)C1`, the inhibition constant (Ki) on D(3) dopamine receptor was determined as 0.077 µM; on D(2) dopamine receptor, 0.0046 µM.
